From article PMC11002875, “Linking triphenylphosphonium cation to a bicyclic hydroquinone improves their antiplatelet effect via the regulation of mitochondrial function” (Redox Biology, 2024)

Assays:
[1] = tested on: Whole blood; assay: Bleeding time in vitro, Innovance PFA-200 closure time; set-up: species or system Human; details: 10 μM, 10 min
Method: Bleeding time in vitro Innovance PFA-200 system. Blood was obtained in 3.2% citrate tubes which were allowed to settle for 30 min before the test. Whole blood was mixed with NP4 10 μM and incubated for 10 min. Subsequently, the sample was loaded into the Collagen/Epinephrine or Collagen/ADP cartridge and the closure time was measured in the Innovance PFA-200 system (Siemens Healthcare Diagnostics Products, Munich, Germany). Eptifibatide 10 μM was used as a control.

[2] = tested on: platelet-rich plasma (PRP); assay: Clot retraction; set-up: species or system Human; details: 10 μM; thrombin 0.5 Units/mL; 2 h
Method: Clot retraction. Blood was obtained in 3.2% citrate tubes, which were centrifuged for 12 min at 250 g to obtain platelet-rich plasma (PRP). The assay was prepared in Khan tubes by adding 750 μL of tyrodes buffer without calcium, 200 μL of PRP, and 5 μL of red blood cells; the mixture was treated with NP4 10 μM or vehicle and incubated for 10 min. A glass rod was positioned in the center of the tube (as a support for clot adhesion) and clot retraction was initiated by adding 50 μl of 10 Units/mL thrombin (final concentration 0.5 Units/mL). Photographs were recorded at 0; 15; 30; 60; 90; and 120 min time intervals. The clots formed after 2 h were weighed to quantify retraction.

[3] = tested on: Washed platelets; assay: Cell viability by Calcein-AM (flow cytometry); type: cell-based, Human; details: 1, 2, 5, 10 and 20 μM; 15 min
Method: (§1) Human platelet purification. The blood sample was obtained from voluntary donors (10 days without antiplatelet medication) who agreed to participate after signing informed consent (Scientific Ethics Committee of the University of Talca N° 04–2022). Briefly, blood anticoagulated with acid-citrate-dextrose (ACD) was obtained in a 4:1 v/v ratio. The sample was centrifuged for 12 min at 250 g to obtain platelet-rich plasma (PRP). Subsequently, the PRP was centrifuged for 8 min at 900 g to obtain the platelet pellet. The plasma supernatant was removed, and the platelets were resuspended in Tyrodes buffer without calcium plus ACD in a ratio of 5:1 v/v. The platelets were centrifuged once more for 8 min at 900 g and the pellet was resuspended in Tyrodes buffer without calcium. Finally, the platelets were counted (Mindray BC-3000 Plus hematology counter, Japan), adjusted to the desired concentration, and used within 3 h.
Cell viability by Calcein-AM. Washed platelets (200-250 × 10^6 platelets/mL) were labeled with 0.1 μM Calcein-AM and incubated for 15 min at 37 °C protected from light. […] Viability was analyzed on the BD Facs Lyric Flow Cytometer (BD Biosciences, USA). The percentage of Calcein-negative platelets (without fluorescence) in the CD61-PE-positive subpopulation (BD Biosciences, San José, CA, USA) was identified as non-viable platelets. […]

[4] = tested on: Washed platelets; assay: Intraplatelet calcium levels (Fluo-4-AM); type: cell-based, Human; details: compounds 1, 5 and 10 μM, 10 min
Method: as §1
Intraplatelet calcium levels. Washed platelets (200-250 × 10^6 platelets/mL) were labeled Fluo-4-AM probe with 0.5 μM and incubated for 20 min at room temperature protected from light. Subsequently, platelets were adjusted to a count of 50 × 10^6 platelets/mL, and compounds (1, 5, and 10 μM) were added and incubated for 10 min at 37 °C. The sample was acquired in the BD Facs Lyric flow cytometer (BD Biosciences, USA). Representative dot plots are available in Supplementary Figs. 13 and 26. As a control for increased intracellular calcium, P-trifluoromethoxyphenylhydrazone carbonylcyanide (FCCP) 1 μM was used.

[5] = tested on: Washed platelets; assay: Platelet activation markers in washed platelets (flow cytometry); type: cell-based, Human; details: collagen 2 μg/mL; compounds 1, 5 and 10 μM; vs activated control
Method: as §1
Platelet activation markers. Washed platelets (200-250 × 10^6 platelets/mL) were incubated with the compounds (1, 5 and 10 μM), then activated with collagen 2 μg/mL and incubated for 5 min at 37 °C. Aliquots of the reaction were then collected and labeled separately with human antibodies (BD Biosciences, San José, CA, USA) for P-selectin, CD63, activated GPIIb/IIIa (PAC-1), and fibrinogen to assess the levels of each marker on the platelet membrane. The sample was acquired using the BD Facs Lyric flow cytometer (BD Biosciences, USA). Representative dot plots are available in Supplementary Figures 8-11 and 20-23. In the case of the activation markers P-selectin and bound fibrinogen in PRP, the same procedure for washed platelets was performed with representative dot plots available in Supplementary Figs. 15 and 16. The platelet population was identified with anti-CD61-PE or anti-CD61-FITC (BD Biosciences, San José, CA, USA).

[6] = tested on: platelets; assay: Oxygen consumption and extracellular acidification rate (Seahorse XFe24); type: cell-based, Human
Method: as §1
Oxygen consumption and extracellular acidification rate. Oxygen consumption rate (OCR) and extracellular acidification rate (ECAR) were measured with a Seahorse XFe24 extracellular flux analyzer (Agilent, Santa Clara, CA, USA). Briefly, 100 μL of platelets washed in modified Tyrode-HEPES buffer were deposited (20–25 × 10^6 cells/well) and then centrifuged at 300 g for 10 min. Platelets were incubated with NP4 10 μM for 5 min, and then Tyrode's-HEPES buffer was removed and Seahorse medium (8.3 g/L DMEM, 1.85 g/L NaCl, 5 mM glucose, 1 mM pyruvate, 2 mM glutamine, 5 mM HEPES, pH 7.4) was added to a final volume of 600 μL [70]. OCR was measured before and after the sequential addition of 3 μg/mL collagen, 2.5 μM oligomycin, 1.4 μM FCCP, and 2 μM/2 μM antimycin A/rotenone. Non-mitochondrial OCR was subtracted from all measurements. Respiratory parameters obtained with Mito Stress Test (Supplementary Table 1) were calculated as follows: Baseline (baseline OCR), collagen (OCR after collagen addition), activation (collagen-basal), ATP-independent or proton leak (OCR resistant to oligomycin addition), ATP-linked respiration (basal-proton leak), maximum (OCR obtained after addition of FCCP), and spare (maximal-basal), coupling efficiency (OCR Basal – OCR ATP-indep)/OCR Basal). Respiratory parameters were calculated according to Refs. [66, 70, 73].

## Cc1c(C)c(O)c2c(c1O)C(=O)C(CCCC[P+](c1ccccc1)(c1ccccc1)c1ccccc1)=CC2(C)C.[Br-] [NP4, (4-(5,8-dihydroxy-4,4,6,7-tetramethyl-1-oxo-1,4-dihydronaphthalen-2-yl)butyl)triphenyl phosphonium bromide]
[1]
  Closure time PFA-200 Collagen/ADP: does not significantly alter
  Closure time PFA-200 Collagen/Epinephrine: does not significantly alter
[2]
  Clot retraction (clot weight): does not significantly alter
other
  melting point: 282 °C (dec.)
[3]
  Platelet viability (Calcein-AM negative platelets): none of the concentrations evaluated for NP4 showed significant effects
[4]
  Intraplatelet calcium levels: increase it significantly
[5]
  Bound fibrinogen platelet activation marker: at the 10 μM concentration was able to significantly decrease
  CD63 platelet activation marker: at the 10 μM concentration was able to significantly decrease
  P-selectin platelet activation marker: at the 10 μM concentration was able to significantly decrease
  PAC-1 (activated GPIIb/IIIa) platelet activation marker: at the 10 μM concentration was able to significantly decrease
[6]; 10 µM
  ATP-dep (OCRBasal – OCRATP-indep): 0,2 ± 0,22
  Activation (OCRCollagen – OCRBasal): 0,15 ± 0,14
  Coupling efficiency ((OCRBasal – OCRATP-indep)/OCRBasal): 0,095 ± 0,075
  Spare (OCRMaximum – OCRBasal): 1,03 ± 0,29
[6]; 10 µM, Seahorse Mito Stress Test
  Basal (OCR/10^6 platelets): 1,33 ± 0,69 OCR/10^6 platelets
[6]; 10 µM, after 1.4 μM FCCP
  Maximum (OCR/10^6 platelets): 2,28 ± 0,45 OCR/10^6 platelets
[6]; 10 µM, after 3 μg/mL collagen
  Collagen (OCR/10^6 platelets): 1,29 ± 0,48 OCR/10^6 platelets
[6]; 10 µM, after antimycin A/rotenone
  Non-mito (OCR/10^6 platelets): 0,04 ± 0,08 OCR/10^6 platelets
[6]; 10 µM, proton leak, after 2.5 μM oligomycin
  ATP-indep (OCR/10^6 platelets): 1,69 ± 0,47 OCR/10^6 platelets
[6]; non-activated platelets, NP4 10 μM, control 87.5 ± 10.6
  Basal extracellular acidification of the media: 133.9 ± 14.1 mpH/min/10^6 platelets
